Results as given in ChEMBL document CHEMBL1143946, “Docking analyses on human muscarinic receptors: unveiling the subtypes peculiarities in agonists binding” (Bioorg Med Chem, 2008).
One block for each compound: values may come before it.

Legend:
Experiment in all cases: biochemical
[1] = target: T1, Muscarinic acetylcholine receptor M5 (Homo sapiens, UniProt P08912)
T1 sequence (P08912 whole entry): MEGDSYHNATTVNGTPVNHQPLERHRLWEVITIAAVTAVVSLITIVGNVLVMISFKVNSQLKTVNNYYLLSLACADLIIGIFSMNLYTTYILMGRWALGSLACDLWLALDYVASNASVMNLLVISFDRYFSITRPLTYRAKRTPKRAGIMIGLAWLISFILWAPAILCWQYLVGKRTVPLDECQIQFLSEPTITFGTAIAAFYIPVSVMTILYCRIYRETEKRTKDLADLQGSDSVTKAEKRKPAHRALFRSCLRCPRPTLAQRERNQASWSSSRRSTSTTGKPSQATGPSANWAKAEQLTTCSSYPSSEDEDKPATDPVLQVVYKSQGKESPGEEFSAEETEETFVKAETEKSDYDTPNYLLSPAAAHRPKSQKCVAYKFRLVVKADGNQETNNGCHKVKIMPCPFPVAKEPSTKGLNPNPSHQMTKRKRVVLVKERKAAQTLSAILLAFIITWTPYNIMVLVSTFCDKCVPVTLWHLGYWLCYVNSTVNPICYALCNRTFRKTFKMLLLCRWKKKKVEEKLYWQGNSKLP
Description: Binding affinity to human cloned muscarinic M5 receptor expressed in CHO cells

[2] = target: T2, Muscarinic acetylcholine receptor M1 (Homo sapiens, UniProt P11229)
T2 sequence (P11229 whole entry): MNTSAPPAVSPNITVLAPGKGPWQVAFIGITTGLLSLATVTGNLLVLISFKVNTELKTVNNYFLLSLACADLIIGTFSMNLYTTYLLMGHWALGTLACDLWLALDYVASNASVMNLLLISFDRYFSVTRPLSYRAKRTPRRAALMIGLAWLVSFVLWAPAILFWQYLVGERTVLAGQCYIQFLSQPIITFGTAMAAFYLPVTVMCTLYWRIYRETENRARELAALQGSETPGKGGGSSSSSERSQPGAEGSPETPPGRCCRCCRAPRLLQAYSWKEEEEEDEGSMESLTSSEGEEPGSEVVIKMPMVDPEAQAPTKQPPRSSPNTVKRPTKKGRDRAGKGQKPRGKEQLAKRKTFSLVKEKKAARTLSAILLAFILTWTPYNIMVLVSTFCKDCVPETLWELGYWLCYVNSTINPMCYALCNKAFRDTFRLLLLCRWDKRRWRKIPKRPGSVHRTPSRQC

[3] = target: T3, Muscarinic acetylcholine receptor M2 (Homo sapiens, UniProt P08172)
T3 sequence (P08172 whole entry): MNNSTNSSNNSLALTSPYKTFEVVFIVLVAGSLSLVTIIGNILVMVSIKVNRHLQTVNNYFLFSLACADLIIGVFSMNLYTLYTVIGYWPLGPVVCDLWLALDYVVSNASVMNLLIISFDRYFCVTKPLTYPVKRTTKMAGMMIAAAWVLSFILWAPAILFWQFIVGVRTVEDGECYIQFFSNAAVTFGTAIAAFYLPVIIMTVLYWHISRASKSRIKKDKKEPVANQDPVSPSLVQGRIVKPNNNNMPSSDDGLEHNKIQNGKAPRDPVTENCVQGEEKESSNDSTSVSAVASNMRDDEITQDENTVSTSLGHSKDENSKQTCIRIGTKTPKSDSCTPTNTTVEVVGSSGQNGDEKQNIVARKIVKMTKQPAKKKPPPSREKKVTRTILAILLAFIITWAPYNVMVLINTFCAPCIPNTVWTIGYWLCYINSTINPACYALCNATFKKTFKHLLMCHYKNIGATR

SMILES: C[C@H]1OC[C@@H](C[N+](C)(C)C)O1
Ki [1]: 21.9 µM
Ki [2]: 11 µM
Ki [3]: 1200 nM

Ki [1]: 0.00617 µM
Ki [2]: 0.0912 µM
Ki [3]: 3.63 nM
SMILES: Cc1nccn1CC#CCOc1ccon1

SMILES: C[C@@H]1O[C@H]([C@H]2CCC[N+]2(C)C)CS1
Ki [1]: 24.5 µM
Ki [2]: 19.1 µM
Ki [3]: 5250 nM

SMILES: C[C@@H]1O[C@H]([C@@H]2CCC[N+]2(C)C)CS1
Ki [1]: 23.4 µM
Ki [2]: 14.1 µM
Ki [3]: 3550 nM

SMILES: C[C@H]1O[C@@H]([C@H]2CCC[N+]2(C)C)CS1
Ki [1]: 10.7 µM
Ki [2]: 5.89 µM
Ki [3]: 1410 nM

SMILES: C[C@H]1OC[C@@H]([C@H]2CCC[N+]2(C)C)O1
Ki [1]: 52.5 µM
Ki [2]: 52.5 µM
Ki [3]: 5010 nM

SMILES: C[C@H]1O[C@@H]([C@@H]2CCC[N+]2(C)C)CS1
Ki [1]: 10.2 µM
Ki [2]: 8.32 µM
Ki [3]: 676 nM

SMILES: C[C@H]1COC[C@@H](C[N+](C)(C)C)O1
Ki [1]: 3.72 µM
Ki [3]: 37200 nM

SMILES: CC(=O)OC1CC2CCCC1N2C (configuration not stated)
Ki [2]: 282 µM
Ki [3]: 2750 nM

SMILES: C[C@@H]1O[C@H](C[N+](C)(C)C)CS1
Ki [1]: 13.2 µM
Ki [2]: 11 µM
Ki [3]: 2090 nM

SMILES: C[C@H]1OC[C@@H]([C@@H]2CCC[N+]2(C)C)O1
Ki [1]: 22.9 µM
Ki [2]: 21.4 µM
Ki [3]: 1700 nM

SMILES: C[C@H]1O[C@@H]([C@@H]2CCC[N+]2(C)C)C[S+]1[O-] (some centres not stated)
Ki [3]: 77600 nM

SMILES: CC(=O)OC1CC2CCCC1N2 (configuration not stated)
Ki [2]: 21.4 µM
Ki [3]: 2.63 nM

Ki [1]: 0.0513 µM
Ki [2]: 0.12 µM
Ki [3]: 102 nM
SMILES: Cc1nccn1CC#CCN1CCCC1=O

SMILES: C[C@@H]1O[C@H]([C@@H]2CCC[N+]2(C)C)C[S+]1[O-] (stereo in doubt; 9)
Ki [3]: 9330 nM

SMILES: C[C@@H]1O[C@H]([C@@H]2CCC[N+]2(C)C)C[S+]1[O-] (stereo in doubt; 11)
Ki [1]: 33.9 µM
Ki [2]: 93.3 µM
Ki [3]: 15500 nM

SMILES: C[C@@H]1O[C@H]([C@@H]2CCC[N+]2(C)C)C[S+]1[O-] (stereo in doubt; 12)
Ki [1]: 57.5 µM
Ki [3]: 81300 nM

Ki [1]: 3.16 µM
Ki [2]: 5.62 µM
Ki [3]: 1000 nM
SMILES: CO/N=C/C1=CCCN(C)C1 [MILAMELINE]

SMILES: C[N+](C)(C)CC#CCN1CCCC1=O [OXOTREMORINE METHIODIDE]
Ki [2]: 20.4 µM
Ki [3]: 107 nM

SMILES: O=C1CCCN1CC#CCN1CCCC1 [OXOTREMORINE]
Ki [2]: 0.00112 µM
Ki [3]: 324 nM

SMILES: CO/N=C(\C#N)[C@H]1CN2CCC1CC2 [SABCOMELINE]
Ki [2]: 0.229 µM
Ki [3]: 204 nM
